# Test results reported in ChEMBL document CHEMBL1127670, “Comparative molecular field analysis of the antitumor activity of 9H-thioxanthen-9-one derivatives against pancreatic ductal carcinoma 03” (1994).
# Tested on: Mus musculus
# Test: Compound was tested for in vivo growth inhibition of pancreatic ductal adenocarcinoma (Panc 03) in mice, expressed as antitumor efficacy; range is 26-42
# Format: functional
row,SMILES,T/C
1,CCN(CC)CCNc1ccc(CN(C)C)c2sc3ccccc3c(=O)c12,42%
2,CCN(CC)CCNc1ccc(COC)c2sc3ccccc3c(=O)c12,26%
3,CCN(CC)CCNc1ccc(COC(=O)C(C)(C)C)c2sc3ccccc3c(=O)c12,42%

# Tested on: Mus musculus
# Test: Compound was tested for in vivo growth inhibition of pancreatic ductal adenocarcinoma (Panc 03) in mice, expressed as antitumor efficacy; range is 11-25
# Format: functional
row,SMILES,T/C
1,Cc1ccc(NCCN(C)C)c2c(=O)c3ccccc3sc12,25%
2,CCN(CC)CCNc1ccc(CNC(=O)c2ccccc2)c2sc3ccccc3c(=O)c12,25%
3,CCN(CC)CCNc1ccc(CO)c2sc3ccccc3c(=O)c12 [HYCANTHONE],25%

# Tested on: Mus musculus
# Test: Compound was tested for in vivo growth inhibition of pancreatic ductal adenocarcinoma (Panc 03) in mice, expressed as antitumor efficacy; range is 0-10
# Format: functional
row,SMILES,T/C
1,CNCc1ccc(NCCN(C)C)c2c(=O)c3ccccc3sc12,10 score (0-10)
2,CCN(CC)CCNc1ccc(CSC)c2sc3ccccc3c(=O)c12,10 score (0-10)
3,CCN(CC)CCNc1ccc(CNS(=O)(=O)c2ccccc2)c2sc3ccccc3c(=O)c12,10 score (0-10)
4,CNCc1ccc(NCCCN(C)C)c2c(=O)c3ccccc3sc12,10 score (0-10)
5,CCN(CC)CCNc1ccc(CN(C)S(=O)(=O)CC)c2sc3ccccc3c(=O)c12,0 score (0-10)

# Tested on: Mus musculus
# Test: The compound was tested for in vivo growth inhibition of pancreatic ductal adenocarcinoma (Panc 03) in mice.
# Format: functional
row,SMILES,T/C
1,CCN(CC)CCNc1ccc(CNS(=O)(=O)c2ccc(N)cc2)c2sc3ccccc3c(=O)c12,3%
2,CCCCCCC(=O)OCc1ccc(NCCN(CC)CC)c2c(=O)c3ccccc3sc12,2%
3,CCN(CC)CCNc1ccc(/C=N/c2ccccc2)c2sc3ccccc3c(=O)c12,2%

# Tested on: Mus musculus
# Test: Compound was tested for in vivo growth inhibition of pancreatic ductal adenocarcinoma (Panc 03) in mice, expressed as antitumor efficacy
# Format: functional
row,SMILES,T/C
1,CCN(CC)CCNc1ccc(C(N)=O)c2sc3ccccc3c(=O)c12,0%
2,CCN(CC)CCNc1ccc(CN(CC)S(C)(=O)=O)c2sc3ccccc3c(=O)c12,0%
3,CCN(C=O)Cc1ccc(NCCN(CC)CC)c2c(=O)c3ccccc3sc12,0%
4,CCNCc1ccc(NCCN(CC)CC)c2c(=O)c3ccccc3sc12,0%
5,CN(C)CCNc1ccc(CN)c2sc3ccccc3c(=O)c12,0%
6,CCN(CC)CCNc1ccc(CNC(C)=O)c2sc3ccccc3c(=O)c12,0%
7,CCN(CC)CCNc1ccc(CN(C)S(C)(=O)=O)c2sc3ccccc3c(=O)c12,0%
8,CN(C)CCNc1ccc(CNS(C)(=O)=O)c2sc3ccccc3c(=O)c12,0%
